Reference: US9988680B2, “Non-natural nucleosides as theranostic agents” (Case Western Reserve University, priority 2011, dated 2018)

How the values were obtained:
[1] = target: T1, terminal deoxynucleotidyl transferase (TdT) (Bos taurus, UniProt P06526); experiment: Incorporation of natural and non-natural nucleotides by TdT (polymerization assay, Michaelis-Menten kinetics); type: biochemical
Experimental: All enzymatic assays were performed as previously described. […] Reactions were quenched with 200 Mm EDTA at variable times (5-600 s) and analyzed using denaturing gel electrophoresis. Time courses in product formation were fitted using eq 1: Y=mt+b(1) (1)
where y is the amount of product, m is the rate of the reaction, t is time, and b is the Y-intercept. Km and Vmax values were determined by fits of the data points to the Michaelis-Menten equation: […]
where Vmax is the maximal rate of nucleotide incorporation, Km is the Michaelis constant for dNTP, and [dNTP] is the concentration of nucleotide substrate. The IC50 value for 3-Eth-5-NITP was obtained using a nonlinear regression curve fit of the data to eq 3:
The biological function of TdT is to expand immunological diversity by randomly incorporating dNTPs into single-stranded DNA during V(D)J recombination. […] TdT also utilizes nucleotide analogues including 2′,3′-dideoxynucleotides, dinucleoside 5′,5′-tetraphosphates, and intrinsically fluorescent nucleotide analogues. In this report, we tested if TdT also incorporates indolyl-2′-deoxyribose-5′-triphosphates that bear non-natural moieties such as ethynyl and nitro groups at the 3- and 5-position, respectively, of the indole base. […] Aliquots of the reaction were quenched with EDTA at variable time points, and the polymerization reactions were then subjected to denaturing polyacrylamide gel electrophoresis to separate extended primers from unreacted substrate.
Time courses in product formation were generated using pseudo-first order reaction conditions in which 6 units of TdT were incubated with 1.5 μM DNA substrate and mixed with variable concentrations of non-natural nucleotide (0.05-50 μM). Each time course was fit to an equation for a straight line to define the rate of nucleotide incorporation (data not shown).

[2] = target: T1, terminal deoxynucleotidyl transferase (TdT); experiment: as above; type: biochemical; conditions: reaction times of up to 20 min

T1 sequence (P06526 whole entry): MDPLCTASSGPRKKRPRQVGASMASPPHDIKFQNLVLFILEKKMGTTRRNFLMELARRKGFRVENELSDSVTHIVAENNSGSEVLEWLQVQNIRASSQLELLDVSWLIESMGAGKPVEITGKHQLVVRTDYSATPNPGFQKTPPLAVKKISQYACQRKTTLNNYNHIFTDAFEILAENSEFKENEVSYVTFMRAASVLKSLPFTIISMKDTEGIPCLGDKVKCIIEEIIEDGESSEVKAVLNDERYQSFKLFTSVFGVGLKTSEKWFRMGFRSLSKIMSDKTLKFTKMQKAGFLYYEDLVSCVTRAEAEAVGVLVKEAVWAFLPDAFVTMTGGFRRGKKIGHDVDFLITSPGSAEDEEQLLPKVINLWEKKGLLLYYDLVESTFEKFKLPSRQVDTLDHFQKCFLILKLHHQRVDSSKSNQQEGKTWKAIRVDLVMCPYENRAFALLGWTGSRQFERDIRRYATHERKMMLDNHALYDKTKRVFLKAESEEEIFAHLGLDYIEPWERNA

Compound: C#Cc1cn(C2CC(O)C(COP(=O)(O)OP(=O)(O)OP(=O)(O)O)O2)c2ccc([N+](=O)[O-])cc12 (stereo not drawn) [3-Eth-5-NITP, 3-ethynyl-5-nitroindolyl-2′-deoxyribose-5′-triphosphate]
- utilization by TdT (elongation of 14-mer DNA substrate) ([1]; 100 μM nucleotide, 6 units TdT, 1.5 μM 14-mer (FIG. 2B)): utilized by TdT as efficiently as the natural purines
- extension by TdT beyond the incorporated nucleotide ([1]; 100 μM nucleotide, 14-mer DNA, gel (FIG. 2B)): poorly extended
- Vmax ([1]; incorporation by TdT, 6 units TdT, 1.5 μM single-stranded DNA substrate): 3.2 ± 0.1 nM/s
- catalytic efficiency higher than that for 5-NITP ([1]; relative to 5-NITP): 7 fold
- decrease in Vmax ([1]; relative to 5-NITP): 3.5 fold
- extension by TdT beyond the incorporated nucleotide at longer reaction times [2]: not observed
